The source of these data is patent US8343993B2, “Hydroxyalkyl substituted imidazonaphthyridines” (3M Innovative Properties Company, priority 2005, dated 2013).

The test system of one data set is IFN-α. Kind of data set: Cytokine induction in human cells (PBMC): IFN-α secreted into culture media, ELISA. The class given is cell-based. Particulars: 30-0.014 μM, lowest concentration inducing over 20 pg/mL, median where several experiments, read-out: Minimum Effective Concentration IFN. The text has this: (§1) An in vitro human blood cell system is used to assess cytokine induction. Activity is based on the measurement of interferon (α) and tumor necrosis factor (α) (IFN-α, and TNF-α, respectively) secreted into culture media as described by Testerman et. al. in “Cytokine Induction by the Immunomodulators Imiquimod and S-27609”, Journal of Leukocyte Biology, 58, 365-372 (September, 1995).
(§2) Whole blood from healthy human donors is collected by venipuncture into vacutainer tubes or syringes containing EDTA. Peripheral blood mononuclear cells (PBMC) are separated from whole blood by density gradient centrifugation using HISTOPAQUE-1077 (Sigma, St. Louis, Mo.) or Ficoll-Paque Plus (Amersham Biosciences Piscataway, N.J.). Blood is diluted 1:1 with Dulbecco's Phosphate Buffered Saline (DPBS) or Hank's Balanced Salts Solution (HBSS). Alternately, whole blood is placed in Accuspin (Sigma) or LeucoSep (Greiner Bio-One, Inc., Longwood Fla.) centrifuge frit tubes containing density gradient medium. The PBMC layer is collected and washed twice with DPBS or HBSS and re-suspended at 4×10^6 cells/mL in RPMI complete. The PBMC suspension is added to 96 well flat bottom sterile tissue culture plates containing an equal volume of RPMI complete media containing test compound.
(§3) The compounds are solubilized in dimethyl sulfoxide (DMSO). The DMSO concentration should not exceed a final concentration of 1% for addition to the culture wells. The compounds are generally tested at concentrations ranging from 30-0.014 μM. Controls include cell samples with media only, cell samples with DMSO only (no compound), and cell samples with reference compound.
(§4) The solution of test compound is added at 60 μM to the first well containing RPMI complete and serial 3 fold dilutions are made in the wells. The PBMC suspension is then added to the wells in an equal volume, bringing the test compound concentrations to the desired range (usually 30-0.014 μM). The final concentration of PBMC suspension is 2×10^6 cells/mL. The plates are covered with sterile plastic lids, mixed gently and then incubated for 18 to 24 hours at 37° C. in a 5% carbon dioxide atmosphere.
(§5) Following incubation the plates are centrifuged for 10 minutes at 1000 rpm (approximately 200×g) at 4° C. The cell-free culture supernatant is removed and transferred to sterile polypropylene tubes. Samples are maintained at −30 to −70° C. until analysis. The samples are analyzed for IFN-α by ELISA and for TNF-α by IGEN/BioVeris Assay.
IFN-α concentration is determined with a human multi-subtype colorimetric sandwich ELISA (Catalog Number 41105) from PBL Biomedical Laboratories, Piscataway, N.J. Results are expressed in pg/mL.
Analysis of the data has two steps. First, the greater of the mean DMSO (DMSO control wells) or the experimental background (usually 20 pg/mL for IFN-α and 40 pg/mL for TNF-α) is subtracted from each reading. If any negative values result from background subtraction, the reading is reported as “*” and is noted as not reliably detectable. In subsequent calculations and statistics, “*” is treated as a zero. Second, all, background subtracted values are multiplied by a single adjustment ratio to decrease experiment to experiment variability. The adjustment ratio is the area of the reference compound in the new experiment divided by the expected area of the reference compound based on the past 61 experiments (unadjusted readings). […] The reference compound used is 2-[4-amino-2-ethoxymethyl-6,7,8,9-tetrahydro-α,α-dimethyl-1H-imidazo[4,5-c]quinolin-1-yl]ethanol hydrate (U.S. Pat. No. 5,352,784; Example 91) and the expected area is the sum of the median dose values from the past 61 experiments.
The minimum effective concentration is calculated based on the background-subtracted, reference-adjusted results for a given experiment and compound. […]
Background: An ELISA detects its analyte on a solid surface through an enzyme-linked reagent.

The subject of another data set is TNF-α. The experiment in a line: Cytokine induction in human cells (PBMC): TNF-α secreted into culture media, ORIGEN M-Series immunoassay. The class given is cell-based. Particulars: median where several experiments; for minimal effective concentration: 30-0.014 μM, lowest concentration inducing over 40 pg/mL, read-out: Minimum Effective Concentration TNF; for Maximal Response TNF: Table 4, background-subtracted, reference-adjusted, * = below background.
Description: as §1, §2, §3, §4, §5
The TNF-α concentration is determined by ORIGEN M-Series Immunoassay and read on an IGEN M-8 analyzer from BioVeris Corporation, formerly known as IGEN International, Gaithersburg, Md. The immunoassay uses a human TNF-α capture and detection antibody pair (Catalog Numbers AHC3419 and AHC3712) from Biosource International, Camarillo, Calif. Results are expressed in pg/mL.
Analysis of the data has two steps. First, the greater of the mean DMSO (DMSO control wells) or the experimental background (usually 20 pg/mL for IFN-α and 40 pg/mL for TNF-α) is subtracted from each reading. If any negative values result from background subtraction, the reading is reported as “*” and is noted as not reliably detectable. In subsequent calculations and statistics, “*” is treated as a zero. Second, all, background subtracted values are multiplied by a single adjustment ratio to decrease experiment to experiment variability. The adjustment ratio is the area of the reference compound in the new experiment divided by the expected area of the reference compound based on the past 61 experiments (unadjusted readings). […] The reference compound used is 2-[4-amino-2-ethoxymethyl-6,7,8,9-tetrahydro-α,α-dimethyl-1H-imidazo[4,5-c]quinolin-1-yl]ethanol hydrate (U.S. Pat. No. 5,352,784; Example 91) and the expected area is the sum of the median dose values from the past 61 experiments. […]

Molecules are shown by their SMILES. Read-outs that look alike come from different tables or passages of the source. Bounds are passed on as bounds.

As to `CC(C)(Cn1c(CO)nc2c(N)nc3cccnc3c21)NC(=O)C1CCCCC1` [Example 1, N-[2-(4-Amino-2-hydroxymethyl-1H-imidazo[4,5-c][1,5]naphthyridin-1-yl)-1,1-dimethylethyl]cyclohexanecarboxamide], the melting point (in general, the temperature, or range, at which the solid turns liquid) lay in the range of 230 to 232 °C. In addition, in the data set with IFN-α (Table 4, 18 to 24 hours), the minimal effective concentration worked out at 1.11 µM. The minimal effective concentration with TNF-α (Table 4, 18 to 24 hours) was found to be 10 µM.

In turn, `CC(C)(Cn1c(CO)nc2c(N)nc3cccnc3c21)NS(C)(=O)=O` [Example 2, N-[2-(4-Amino-2-hydroxymethyl-1H-imidazo[4,5-c][1,5]naphthyridin-1-yl)-1,1-dimethylethyl]methanesulfonamide] showed a melting point of 268 to 271 °C. In addition, the minimal effective concentration in the data set on IFN-α (Table 4, 18 to 24 hours) is 10 µM. Moreover, the minimal effective concentration in the data set with TNF-α (Table 4, 18 to 24 hours) came out at 30 µM.

The compound `CS(=O)(=O)NCCCCn1c(CCO)nc2c(N)nc3cccnc3c21` [Example 3, N-{4-{4-Amino-2-(2-hydroxyethyl)-1H-imidazo[4,5-c][1,5]naphthyridin-1-yl]butyl}methanesulfonamide] came in with a melting point of 194 to 195 °C. In addition, in the data set with IFN-α (Table 4, 18 to 24 hours), the minimal effective concentration is 1.11 µM. In the data set with TNF-α (Table 4, 18 to 24 hours), the minimal effective concentration came out at 30 µM.

Take `CS(=O)(=O)NCCn1c(CO)nc2c(N)nc3cccnc3c21` [Example 4, N-[2-(4-Amino-2-hydroxymethyl-1H-imidazo[4,5-c][1,5]naphthyridin-1-yl)ethyl]methanesulfonamide]: the melting point was in the range of 239 to 242 °C. For the same compound, the minimal effective concentration in the data set with IFN-α (Table 4, 18 to 24 hours) came out at 10 µM. Also, the minimal effective concentration in the data set on TNF-α (Table 4, 18 to 24 hours) is over 30 µM. Moreover, the “Maximal Response TNF” value with TNF-α is recorded as “* (Below the experimental background of 40 pg/mL)”.

In turn, `CS(=O)(=O)NCCn1c(CCO)nc2c(N)nc3cccnc3c21` [Example 5, N-{2-[4-Amino-2-(2-hydroxyethyl)-1H-imidazo[4,5-c][1,5]naphthyridin-1-yl]ethyl}methanesulfonamide] had a melting point of 136 to 138 °C. In addition, the minimal effective concentration with IFN-α (Table 4, 18 to 24 hours) turned out to be 30 µM. Besides, in the data set with TNF-α (Table 4, 18 to 24 hours), the minimal effective concentration was over 30 µM. The “Maximal Response TNF” value with TNF-α was “* (Below the experimental background of 40 pg/mL)”.

The compound `CC(C)(O)Cn1c(CO)nc2c(N)nc3cccnc3c21` [Example 6, 1-(4-Amino-2-hydroxymethyl-1H-imidazo[4,5-c][1,5]naphthyridin-1-yl)-2-methylpropan-2-ol] showed a melting point of 235 to 237 °C. The minimal effective concentration with IFN-α (Table 3, 18 to 24 hours) was determined as 1.11 µM. Moreover, the minimal effective concentration in the data set on IFN-α (Table 4, 18 to 24 hours) was 1.11 µM. Also, the minimal effective concentration in the data set on TNF-α (Table 3, 18 to 24 hours) was determined as 10 µM. Further, the minimal effective concentration in the data set on TNF-α (Table 4, 18 to 24 hours) is recorded as 10 µM.

Compound `CC(C)(O)Cn1c(CCO)nc2c(N)nc3cccnc3c21` [Example 7, 1-[4-Amino-2-(2-hydroxyethyl)-1H-imidazo[4,5-c][1,5]naphthyridin 1-yl]-2-methylpropan-2-ol] yielded a melting point of 194 to 195 °C. For the same compound, the minimal effective concentration with IFN-α (Table 3, 18 to 24 hours) was 3.33 µM. For the same compound, the minimal effective concentration with IFN-α (Table 4, 18 to 24 hours) is given as 3.33 µM. In addition, the minimal effective concentration with TNF-α (Table 3, 18 to 24 hours) amounted to 30 µM. Further, in the data set with TNF-α (Table 4, 18 to 24 hours), the minimal effective concentration is listed as 30 µM.

Consider `CC(C)(F)Cn1c(CO)nc2c(N)nc3cccnc3c21` [Example 14, [4-Amino-1-(2-fluoro-2-methylpropyl)-1H-imidazo[4,5-c][1,5]naphthyridin-2-yl]methanol], for which the melting point was in the range of 240 to 241 °C. Also, the minimal effective concentration with IFN-α (Table 4, 18 to 24 hours) was 1.11 µM. Moreover, the minimal effective concentration with TNF-α (Table 4, 18 to 24 hours) turned out to be 3.33 µM.

The compound `CC(C)(F)Cn1c(CCO)nc2c(N)nc3cccnc3c21` [Example 15, 2-[4-Amino-1-(2-fluoro-2-methylpropyl)-1H-imidazo[4,5-c][1,5]naphthyridin-2-yl]ethanol] yielded a melting point of 224 to 225 °C. The minimal effective concentration in the data set on IFN-α (Table 4, 18 to 24 hours) is 1.11 µM. Further, in the data set on TNF-α (Table 4, 18 to 24 hours), the minimal effective concentration was determined as 10 µM.

`CC(C)Cn1c(CO)nc2c(N)nc3cccnc3c21` [Example 96, [4-Amino-1-(2-methylpropyl)-1H-imidazo[4,5-c][1,5]naphthyridin-2-yl]methanol] returned a melting point of 226 to 228 °C. The minimal effective concentration in the data set on IFN-α (Table 4, 18 to 24 hours) amounted to 1.11 µM. For the same compound, the minimal effective concentration with TNF-α (Table 4, 18 to 24 hours) came out at 30 µM.
